According to ChEMBL document CHEMBL5725310, “Substituted imidazo[1,5-α]pyridines and imidazo[1,5-α]pyrazines as LSD1 inhibitors” (2017):

Each molecule was assayed against Lysine-specific histone demethylase 1A (Homo sapiens, UniProt O60341) (assay: Demethylase Biochemical Assay: LANCE LSD1/KDM1A demethylase assay¿10 uL of 1 nM LSD-1 enzyme (ENZO BML-SE544-0050) in the assay buffer (50 mM Tris, pH 7.5, 0.01% Tween-20, 25 mM NaCl, 5 mM DTT) were preincubated for 1 hour at 25° C. with 0.8 uL compound/DMSO dotted in black 384 well polystyrene plates. Reactions were started by addition of 10 uL of assay buffer containing 0.4 uM Biotin-labeled Histone H3 peptide substrate: ART-K(Me1)-QTARKSTGGKAPRKQLA-GGK(Biotin) SEQ ID NO:1 (AnaSpec 64355) and incubated for 1 hour at 25° C. Reactions were stopped by addition of 10 uL 1x LANCE Detection Buffer (PerkinElmer CR97-100) supplemented with 1.5 nM Eu-anti-unmodified H3K4 Antibody (PerkinElmer TRF0404), and 225 nM LANCE Ultra Streptavidin (PerkinElmer TRF102) along with 0.9 mM Tranylcypromine-HCl (Millipore 616431). After stopping the reactions plates were incubated for 30 minutes and read on a PHERAstar FS plate reader (BMG Labtech).).

Structure (SMILES) | IC50
COC(=O)N(C)c1ccc(-c2c(-c3ccc(C#N)cc3)nc(N3CCC(N(C)C)CC3)c3cncn23)cn1 | < 50 nM
COC(=O)N(C)c1ccc(-c2c(-c3ccc(C#N)cc3)cc(OC[C@@H]3CCCN(C)C3)c3cncn23)cn1 | < 50 nM
COC(=O)N(C)c1ccc(-c2c(-c3ccc(C#N)cc3)nc(N3CCC(N(C)C)CC3)c3cncn23)cc1F | < 50 nM
